Laboratory results published in US12435095B2, “Substituted morpholines as ATR kinase inhibitors” (Shanghai Annova Biotechnology Co., Ltd., priority 2021, dated 2025).
pIC50: −log10 of the molar value. Read-outs that look alike come from different tables or passages of the source.

Test system: human colon cancer LoVo cells
Experiment: Cell proliferation inhibition assay (CellTiter-Glo)
Assay type: cell-based
Conditions: for pIC50 / Emax: Homo sapiens; for pIC50: read-out: LoVo IC50; for Emax: read-out: Max Inhibition
From the text: Experimental method: A CellTiter-Glo cell viability assay kit was used to test the inhibitory effect of the compounds on the in vitro proliferation of human colon cancer LoVo cells.
Experimental materials: LoVo cells (ATCC, Cat. No. CCL-29); F-12K medium (Invitrogen, Cat. No. 21127-022); fetal bovine serum (Biological Industries, Cat. No. 04-002-1A); GlutaMAX (Gibco, Cat. No. 35050-061); 0.25% trypsin-EDTA (Invitrogen, Cat. No. 25200-072); CellTiter-Glo kit (Promega, Cat. No. G7558).
Experimental procedure: (1) F-12K medium, fetal bovine serum and GlutaMAX were formulated into a complete medium for culturing LoVo cells; (2) well-grown LoVo cells were taken, digested with trypsin and transferred to a centrifuge tube, and centrifuged; the supernatant was discarded, and cells were resuspended by adding a fresh medium and counted by a Vi-CELL XR cell counter; the density of the cell suspension was adjusted to 25,000 to 30,000 cells/mL, and the cell suspension was added at 100 μL/well in a 96-well cell culture plate, while a blank control group was set up with no cells added, and the cell culture plate was incubated in a carbon dioxide incubator overnight; (3) a DMSO solution of the compound to be tested was dispensed into the above 96-well cell culture plate using an HP D300 ultra-micro sampler, with 0.5 μL of the solution per well and 10 concentrations for each compound (3× dilution), while a DMSO control group with no compound added was set up, and the plate was continued to be incubated in a carbon dioxide incubator for 96 hours; (4) the cell culture plate was taken out and equilibrated to room temperature, with 100 μL of a CellTiter-Glo reagent added to each well, and then the plate was kept away from light, shaken for 10 minutes and then incubated for 10 minutes; (5) the cell culture plate was put into EnSpire for plate reading, and the luminescence value RLU was recorded.
Data processing: (1) The inhibition rate was calculated from the luminescence values: “RLUDMSO” is the luminescence value of the DMSO control group without compound, “RLUblank” is the luminescence value of the blank control group without cells, and “RLUcompound” is the luminescence value of the compound test group, and the inhibition rate=[1−(RLUcompound−RLUblank)/(RLUDMSO−RLUblank)]×100%; (2) with curve fitting using the Excel add-on XLFit, the IC50 value was calculated.

[1] = LoVo cells, 96 hours, CellTiter-Glo

Structure (SMILES) | pIC50 [1] | Max Inhibition [1] [%] | Emax [1] [%] | pIC50 (LoVo, 96 h) | Emax (LoVo, 96 h) [%]
C[C@@H]1COCCN1c1cc(-c2ccnc3[nH]ccc23)nc2c1ccn2CS(C)(=O)=O [Compound 4′, reference compound] | 5.63 |  |  |  | 
CC(n1ccc2c(N3CCOC[C@H]3C)cc(-c3ccnc4[nH]ccc34)nc21)S(C)(=O)=O (stereo partly shown) [Compound 5′, reference compound] | 5.73 |  |  |  | 
CC(C)S(=O)(=O)n1ccc2c(N3CCOC[C@H]3C)cc(-c3ccnc4[nH]ccc34)nc21 [Compound 14, (R)-4-(1′-(isopropylsulfonyl)-1H,1′H-[4,6′-dipyrrolo[2,3-b]pyridin]-4′-yl)-3-methylmorpholine] | 5.67 |  | 93 |  | 
C[C@@H]1COCCN1c1cc(-c2ccnc3[nH]ccc23)nc2c1ccn2S(=O)(=O)C1CC1 [Compound 15, (R)-4-(1′-(cyclopropylsulfonyl)-1H,1′H-[4,6′-dipyrrolo[2,3-b]pyridin]-4′-yl)-3-methylmorpholine] | 5.90 |  | 94 |  | 
C[C@@H]1COCCN1c1nc(-c2ccnc3[nH]ccc23)nc2c1ccn2S(C)(=O)=O [Compound 17, (R)-3-methyl-4-(7-(methylsulfonyl)-2-(1H-pyrrolo[2,3-b]pyridin-4-yl)-7H-pyrrolo[2,3-d]pyrimidin-4-yl)morpholine] | 6.77 | 93 |  |  | 
C[C@@H]1COCCN1c1nc(-c2cccc3[nH]ccc23)nc2c1ccn2S(C)(=O)=O [Compound 18, (R)-4-(2-(1H-indol-4-yl)-7-(methylsulfonyl)-7H-pyrrolo[2,3-d]pyrimidin-4-yl)-3-methylmorpholine] | 6.60 | 92 |  |  | 
C[C@@H]1COCCN1c1nc(-c2cncc3[nH]ccc23)nc2c1ccn2S(C)(=O)=O [Compound 19, (R)-3-methyl-4-(7-(methylsulfonyl)-2-(1H-pyrrolo[2,3-c]pyridin-4-yl)-7H-pyrrolo[2,3-d]pyrimidin-4-yl)morpholine] | 7.15 | 90 |  |  | 
C[C@@H]1COCCN1c1nc(-c2ccnc3[nH]ccc23)nc2c1cnn2S(C)(=O)=O [Compound 23, (R)-3-methyl-4-(1-(methylsulfonyl)-6-(1H-pyrrolo[2,3-b]pyridin-4-yl)-1H-pyrazolo[3,4-d]pyrimidin-4-yl)morpholine] |  | 92 |  |  | 
C[C@@H]1COCCN1c1cc(-c2ccnc3[nH]ccc23)nc2c1ncn2S(C)(=O)=O [Compound 24, (R)-3-methyl-4-(3-(methylsulfonyl)-5-(1H-pyrrolo[2,3-b]pyridin-4-yl)-3H-imidazo[4,5-b]pyridin-7-yl)morpholine] | 5.99 | 92 |  |  | 
C[C@@H]1COCCN1c1nc(-c2cncc3[nH]ccc23)cc2c1ncn2S(C)(=O)=O [Compound 25, (R)-3-methyl-4-(1-(methylsulfonyl)-6-(1H-pyrrolo[2,3-c]pyridin-4-yl)-1H-imidazo[4,5-c]pyridin-4-yl)morpholine] | 6.62 | 89 |  |  | 
Cc1cc(-c2nc(N3CCOC[C@H]3C)c3ccn(S(C)(=O)=O)c3n2)c2cc[nH]c2c1 [Compound 29, (R)-3-methyl-4-(2-(6-methyl-1H-indol-4-yl)-7-(methylsulfonyl)-7H-pyrrolo[2,3-d]pyrimidin-4-yl)morpholine] | 6.42 | 94 |  |  | 
C[C@@H]1COCCN1c1nc(-c2cc(Cl)cc3[nH]ccc23)nc2c1ccn2S(C)(=O)=O [Compound 31, (R)-4-(2-(6-chloro-1H-indol-4-yl)-7-(methylsulfonyl)-7H-pyrrolo[2,3-d]pyrimidin-4-yl)-3-methylmorpholine] | 6.24 | 93 |  |  | 
C[C@@H]1COCCN1c1nc(-c2ccnc3[nH]ccc23)nc2c1ccn2S(=O)(=O)N(C)C [Compound 34, (R)—N,N-dimethyl-4-(3-methylmorpholinyl)-2-(1H-pyrrolo[2,3-b]pyridin-4-yl)-7H-pyrrolo[2,3-d]pyrimidine-7-sulfamide] |  |  |  | 6.54 | 93

Further lines, with some results ahead:

pIC50 [1] | Structure (SMILES) | Max Inhibition [1] [%] | Emax [1] [%] | pIC50 (LoVo, 96 h) | Emax (LoVo, 96 h) [%]
6.30 | C[C@@H]1COCCN1c1cc(-c2cccc3[nH]ccc23)nc2c1ccn2S(C)(=O)=O [Compound 2, (R)-4-(6-(1H-indol-4-yl)-1-(methylsulfonyl)-1H-pyrrolo[2,3-b]pyridin-4-yl)-3-methylmorpholine] | 94 |  |  | 
6.37 | C[C@@H]1COCCN1c1cc(-c2cncc3[nH]ccc23)nc2c1ccn2S(C)(=O)=O [Compound 3, (R)-3-methyl-4-(1-(methylsulfonyl)-6-(1H-pyrrolo[2,3-c]pyridin-4-yl)-1H-pyrrolo[2,3-b]pyridin-4-yl)morpholine] | 93 |  |  | 
6.38 | C[C@@H]1COCCN1c1cc(-c2cc(F)cc3[nH]ccc23)nc2c1ccn2S(C)(=O)=O [Compound 7, (R)-4-(6-(6-fluoro-1H-indol-4-yl)-1-(methylsulfonyl)-1H-pyrrolo[2,3-b]pyridin-4-yl)-3-methylmorpholine] | 95 |  |  | 
5.74 | C[C@@H]1COCCN1c1cc(-c2ccnc3[nH]ccc23)nc2c1ccn2S(=O)(=O)N(C)C [Compound 16, (R)—N,N-dimethyl-4′-(3-methylmorpholinyl)-1H,1′H-[4,6′-dipyrrolo[2,3-b]pyridine]-1′-sulfamide] |  | 93 |  | 
6.31 | C[C@@H]1COCCN1c1nc(-c2cc(F)cc3[nH]ccc23)nc2c1ccn2S(C)(=O)=O [Compound 20, (R)-4-(2-(6-fluoro-1H-indol-4-yl)-7-(methylsulfonyl)-7H-pyrrolo[2,3-d]pyrimidin-4-yl)-3-methylmorpholine] | 91 |  |  | 
6.15 | C[C@@H]1COCCN1c1nc(-c2ccnc3[nH]ccc23)nc2c1ccn2S(=O)(=O)CCO [Compound 21, (R)-2-((4-(3-methylmorpholinyl)-2-(1H-pyrrolo[2,3-b]pyridin-4-yl)-7H-pyrrolo[2,3-d]pyrimidin-7-yl)sulfonyl)ethanol] |  | 92 |  | 
5.98 | C[C@@H]1COCCN1c1nc(-c2ccnc3[nH]ccc23)nc2c1ncn2S(C)(=O)=O [Compound 22, (R)-3-methyl-4-(9-(methylsulfonyl)-2-(1H-pyrrolo[2,3-b]pyridin-4-yl)-9H-purin-6-yl)morpholine] | 93 |  |  | 
6.13 | C[C@@H]1COCCN1c1nc(-c2ccnc3[nH]ccc23)cc2c1ccn2S(C)(=O)=O [Compound 26, (R)-3-methyl-4-(1-(methylsulfonyl)-6-(1H-pyrrolo[2,3-b]pyridin-4-yl)-1H-pyrrolo[3,2-c]pyridin-4-yl)morpholine] | 92 |  |  | 
6.21 | C[C@@H]1COCCN1c1nc(-c2nc3ccccc3[nH]2)nc2c1ccn2S(C)(=O)=O [Compound 27, (R)-4-(2-(1H-benzo[d]imidazol-2-yl)-7-(methylsulfonyl)-7H-pyrrolo[2,3-d]pyrimidin-4-yl)-3-methylmorpholine] | 94 |  |  | 
7.00 | CNc1nc2ccccc2n1-c1nc(N2CCOC[C@H]2C)c2ccn(S(C)(=O)=O)c2n1 [Compound 28, (R)—N-methyl-1-(4-(3-methylmorpholinyl)-7-(methylsulfonyl)-7H-pyrrolo[2,3-d]pyrimidin-2-yl)-1H-benzo[d]imidazol-2-amine] |  | 92 |  | 
5.97 | C[C@@H]1COCCN1c1nc(-c2cc(C#N)cc3[nH]ccc23)nc2c1ccn2S(C)(=O)=O [Compound 30, (R)-4-(4-(3-methylmorpholinyl)-7-(methylsulfonyl)-7H-pyrrolo[2,3-d]pyrimidin-2-yl)-1H-indol-6-carbonitrile] |  | 93 |  | 
6.47 | COc1cc(-c2nc(N3CCOC[C@H]3C)c3ccn(S(C)(=O)=O)c3n2)c2cc[nH]c2c1 [Compound 32, (R)-4-(2-(6-methoxy-1H-indol-4-yl)-7-(methylsulfonyl)-7H-pyrrolo[2,3-d]pyrimidin-4-yl)-3-methylmorpholine] | 95 |  |  | 
6.54 | CCS(=O)(=O)n1ccc2c(N3CCOC[C@H]3C)nc(-c3ccnc4[nH]ccc34)nc21 [Compound 33, (R)-4-(7-(ethylsulfonyl)-2-(1H-pyrrolo[2,3-b]pyridin-4-yl)-7H-pyrrolo[2,3-d]pyrimidin-4-yl)-3-methylmorpholine] | 92 |  |  | 
